Results taken from patent US11311524B2, “Pharmaceutical composition used for treatment of HTLV-1-associated myelopathy” (DAIICHI SANKYO COMPANY, LIMITED, priority 2017, dated 2022).

Assays:
[1] = test system: HAM patient-derived PBMC; assay: Autoproliferation (3H-thymidine incorporation) of HAM patient-derived PBMC without stimulation; format: cell-based, human; conditions: for GI50: Homo sapiens, PBMC of 8 HAM patients, 6 days culture, 3H-thymidine, read-out: GI50, autoproliferation activity of HAM patient-derived PBMC; for Suppression of autoproliferation activity of HAM patient-derived PBMC: no stimulation, relative to DMSO group
Experimental: PBMC taken from 8 HAM patients were suspended in culture mediums (RPMI1640 culture medium (wako) containing 10% FBS (GIBCO)), seeded in a 96-well round-bottom plate in a ratio of 1×10^5 cells per well (3 wells were used for each concentration), and compound A or compound B was added so as to provide a final concentration of 1, 10, 100 or 1000 nM. Culture was carried out at 37° C. in 5% CO2 conditions for 6 days. The DMSO treatment group and the PSL (1 μg/mL) treatment group were used as controls. Day 6 after initiation of culture, 1 μCi ^3H-thymidine was added to each well and culture was carried out at 37° C., in 5% CO2 conditions for 16 hours. Thereafter, the cultured cells were allowed to adsorb to a glass filter (Printed Filtermat A, PerkinElmer) by a cell harvester (Tomtec MH3, PerkinElmer), dried and impregnated with solid scintillator Meltilex-A (PerkinElmer). The amount of the ^3H-thymidine incorporated in the cells was measured by use of MicroBeta (WALLAC MicroBeta TriLux 1450-021) (Yamano et al., PLoS One. 2009, 4(8): e6517). Based on the average count of ^3H-thymidine in the DMSO treatment group of HAM patients' PBMC as 100%, the relative values of the groups treated with compound A, compound B and PSL (1 μg/mL) were obtained by calculation, and then, an average value of 8 HAM patient cases was obtained. A significance test was carried out in accordance with the Friedman test of GraphPad Prism6 (MDF).
The number of patients was increased to 16 and the same experiment as above was carried out.
Effect on HAM patient-derived PBMC was checked in the same manner as in the above Example except that an EZH2 inhibitor was used in place of compounds A and B.
As the EZH2 inhibitor, GSK126 (CAS No.: 1346574-57-9) and E7438 (CAS No.: 1403254-99-8) were used. The concentration for treatment was 1, 10, 100, 1000 or 10000 nM in terms of final concentration. In the experiment, PBMC samples taken from the 8 persons before the number of cases increased in the above were used.

[2] = test system: HTLV-1 infected cells in HAM patient's PBMC; assay: HTLV-1 pro-viral load (infected cell rate) in HAM patient-derived PBMC by real time PCR; format: cell-based, human; conditions: PSL 1 μg/ml control, this experimental system or clinical sites
Experimental: PBMC taken from 8 HAM patients were suspended in a culture medium (RPMI1640 culture medium containing 10% FBS) and seeded in a 48-well plate in a ratio of 5×10^5 cells per well, and compound A or compound B was added so as to provide a final concentration of 1, 10, 100 or 1000 nM. The culture solution of 0.5 mL in total was cultured at 37° C. in 5% CO2 conditions for 12 days. A group treated with DMSO and a group treated with PSL (1 μg/mL) were used as controls. Day 12 after initiation of culture, the culture solution was centrifuged, and thereafter, the cell suspension was recovered from each of the cultures carried out under different conditions and centrifuged. After the supernatant was removed, the cell pellet was subjected to genomic DNA extraction. The genome DNA extracted was subjected to real time PCR to measure HTLV-1 pro-viral load (infected cell rate) (Yamano et al., Blood. 2002, 99 (1): 88-94). Based on the HTLV-1 pro-viral load in cells, which were obtained by adding DMSO to each of the HAM patient's PBMC and culturing the PBMC, as 100%, the relative value of HTLV-1 pro-viral load in a group treated with compound A, compound B or PSL was calculated, and then, an average value of 8 HAM patient cases was obtained. The significance test was carried out by using the Friedman test of GraphPad Prism6 (MDF).

Structure (SMILES)	GI50 [1]	Suppression of autoproliferation activity of HAM patient-derived PBMC [1]	Infected cell removal activity [2]
CC[C@H](C)n1cc(C)c2c(C(=O)NCc3c(C)cc(C)[nH]c3=O)cc(-c3ccc(N4CCNCC4)nc3)cc21 [GSK126, N-[(1,2-Dihydro-4,6-dimethyl-2-oxo-3-pyridinyl)methyl]-3-methyl-1-[(1S)-1-methylpropyl]-6-[6-(1-piperazinyl)-3-pyridinyl]-1H-indole-4-carboxamide, reference compound]	724 nM	suppress autoproliferation activity	
C[C@]12C=CC(=O)C=C1CC[C@@H]1[C@@H]2[C@@H](O)C[C@@]2(C)[C@H]1CC[C@]2(O)C(=O)CO [PSL, prednisolone, reference compound]		can suppress autoproliferation activity	does not exhibit infected cell removal activity
CCN(c1cc(-c2ccc(CN3CCOCC3)cc2)cc(C(=O)NCc2c(C)cc(C)[nH]c2=O)c1C)C1CCOCC1 [E7438, N-((4,6-Dimethyl-2-oxo-1,2-dihydropyridin-3-yl)methyl)-5-(ethyl(tetrahydro-2H-piran-4-yl)amino)-4-methyl-4′-(morpholinomethyl)-[1,1′-biphenyl]-3-carboxamide, reference compound]	214 nM	suppress autoproliferation activity	
